By inhibition is commonly meant the relative decrease from the control value, in per cent.

Assay [1] has as its target T1, Tyrosine-protein kinase receptor TYRO3 (Homo sapiens) (UniProt Q06418).
T1 sequence (whole entry): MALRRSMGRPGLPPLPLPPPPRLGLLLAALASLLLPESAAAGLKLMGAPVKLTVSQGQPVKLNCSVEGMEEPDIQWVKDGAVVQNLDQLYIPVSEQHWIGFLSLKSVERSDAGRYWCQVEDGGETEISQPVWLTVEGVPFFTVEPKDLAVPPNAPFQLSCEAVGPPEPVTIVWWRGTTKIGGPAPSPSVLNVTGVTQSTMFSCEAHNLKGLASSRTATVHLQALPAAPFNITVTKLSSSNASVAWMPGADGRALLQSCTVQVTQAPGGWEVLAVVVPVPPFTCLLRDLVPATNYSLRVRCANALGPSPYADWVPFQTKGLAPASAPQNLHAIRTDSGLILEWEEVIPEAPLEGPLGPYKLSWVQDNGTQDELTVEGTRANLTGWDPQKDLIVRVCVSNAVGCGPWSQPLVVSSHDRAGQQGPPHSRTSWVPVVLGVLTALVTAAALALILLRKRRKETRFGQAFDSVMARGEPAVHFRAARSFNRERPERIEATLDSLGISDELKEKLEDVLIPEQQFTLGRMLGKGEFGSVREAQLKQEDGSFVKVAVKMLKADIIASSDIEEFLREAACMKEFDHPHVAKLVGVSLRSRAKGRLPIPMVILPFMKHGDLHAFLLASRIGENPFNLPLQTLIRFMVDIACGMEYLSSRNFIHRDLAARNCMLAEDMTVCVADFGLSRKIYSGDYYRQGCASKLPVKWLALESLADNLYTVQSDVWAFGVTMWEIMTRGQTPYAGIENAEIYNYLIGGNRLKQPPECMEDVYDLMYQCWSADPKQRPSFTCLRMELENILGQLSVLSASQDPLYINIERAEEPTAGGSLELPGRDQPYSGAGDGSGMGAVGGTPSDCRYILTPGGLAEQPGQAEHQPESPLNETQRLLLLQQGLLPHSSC
Briefly: Inhibition of recombinant human Tyro3 kinase domain using poly (Glu, Ala, Tyr) as substrate up to 50 uM after 1.5 hrs by ELISA. (In general: An ELISA detects its analyte on a solid surface through an enzyme-linked reagent.)

Assay [2] concerns the target Fibroblast growth factor receptor 3 (Homo sapiens) (UniProt P22607). In words: Inhibition of FGFR3 (unknown origin) at 75 uM relative to control.
The target is the same in assay [3]. In words: Inhibition of FGFR3 (unknown origin) at 1 uM relative to control.
For assay [4] the target is unchanged. Briefly: Inhibition of FGFR3 (unknown origin) at 0.5 uM relative to control.
Assay [5] addresses Tyrosine-protein kinase ABL1 (Homo sapiens) (UniProt P00519). Briefly: Inhibition of phosphorylated form of Abl1 (unknown origin) at 75 uM relative to control.
The target is the same in assay [6]. Briefly: Inhibition of phosphorylated form of Abl1 (unknown origin) at 1 uM relative to control.
The target is the same in assay [7]. In words: Inhibition of phosphorylated form of Abl1 (unknown origin) at 0.5 uM relative to control.
For assay [8] the target is unchanged. Briefly: Inhibition of non-phosphorylated form of Abl1 (unknown origin) at 75 uM relative to control.
Assay [9] has the same target. Briefly: Inhibition of non-phosphorylated form of Abl1 (unknown origin) at 1 uM relative to control.
The target is the same in assay [10]. Briefly: Inhibition of non-phosphorylated form of Abl1 (unknown origin) at 0.5 uM relative to control.
The target in assay [11] is Hepatocyte growth factor receptor (Homo sapiens) (UniProt P08581). In words: Inhibition of Met (unknown origin) at 75 uM relative to control.
Assay [12] has the same target. Briefly: Inhibition of Met (unknown origin) at 1 uM relative to control.
The target is the same in assay [13]. In words: Inhibition of Met (unknown origin) at 0.5 uM relative to control.
The target of assay [14] is T2, Tyrosine-protein kinase Mer (Homo sapiens) (UniProt Q12866).
T2 sequence (whole entry): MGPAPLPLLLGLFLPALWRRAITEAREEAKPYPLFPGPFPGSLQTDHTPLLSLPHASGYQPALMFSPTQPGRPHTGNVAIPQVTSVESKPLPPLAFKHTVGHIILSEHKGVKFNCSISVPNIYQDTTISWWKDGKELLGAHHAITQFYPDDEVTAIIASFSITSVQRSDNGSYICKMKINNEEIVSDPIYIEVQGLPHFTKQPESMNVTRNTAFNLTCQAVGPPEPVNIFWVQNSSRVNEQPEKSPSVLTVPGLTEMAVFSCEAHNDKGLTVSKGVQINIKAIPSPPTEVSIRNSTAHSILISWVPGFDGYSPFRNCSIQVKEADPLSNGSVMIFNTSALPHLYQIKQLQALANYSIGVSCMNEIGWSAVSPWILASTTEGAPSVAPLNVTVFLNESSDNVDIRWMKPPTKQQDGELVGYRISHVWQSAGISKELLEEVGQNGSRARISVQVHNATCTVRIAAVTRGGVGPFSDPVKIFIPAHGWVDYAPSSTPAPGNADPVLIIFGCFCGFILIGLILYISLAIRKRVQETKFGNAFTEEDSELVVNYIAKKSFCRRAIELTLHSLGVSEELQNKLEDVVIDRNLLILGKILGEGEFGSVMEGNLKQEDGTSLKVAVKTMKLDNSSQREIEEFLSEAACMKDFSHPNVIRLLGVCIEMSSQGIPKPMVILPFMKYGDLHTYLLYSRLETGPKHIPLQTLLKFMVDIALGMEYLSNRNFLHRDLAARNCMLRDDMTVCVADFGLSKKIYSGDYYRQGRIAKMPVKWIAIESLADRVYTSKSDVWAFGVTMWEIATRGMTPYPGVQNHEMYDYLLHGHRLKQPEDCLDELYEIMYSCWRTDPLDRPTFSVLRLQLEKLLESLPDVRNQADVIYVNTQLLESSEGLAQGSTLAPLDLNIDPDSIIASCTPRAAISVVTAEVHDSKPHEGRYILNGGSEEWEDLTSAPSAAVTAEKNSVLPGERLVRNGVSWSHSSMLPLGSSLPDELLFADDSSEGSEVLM
Briefly: Inhibition of Mer (unknown origin) at 75 uM relative to control.

Assay [15] addresses T2, Tyrosine-protein kinase Mer (Homo sapiens). In words: Inhibition of Mer (unknown origin) at 1 uM relative to control.
The target is the same in assay [16]. In words: Inhibition of Mer (unknown origin) at 0.5 uM relative to control.
Assay [17] addresses Tyrosine-protein kinase receptor UFO (Homo sapiens) (UniProt P30530). In words: Inhibition of Axl (unknown origin) at 75 uM relative to control.
Assay [18] has the same target. In words: Inhibition of Axl (unknown origin) at 1 uM relative to control.
For assay [19] the target is unchanged. Briefly: Inhibition of Axl (unknown origin) at 0.5 uM relative to control.
Assay [20] concerns the target T1, Tyrosine-protein kinase receptor TYRO3 (Homo sapiens). Briefly: Inhibition of recombinant human Tyro3 kinase domain using poly (Glu, Ala, Tyr) as substrate at 75 uM after 1.5 hrs by ELISA relative to control.
Assay [21] shares this target. Briefly: Inhibition of recombinant human Tyro3 kinase domain using poly (Glu, Ala, Tyr) as substrate at 1 uM after 1.5 hrs by ELISA relative to control.
The target is the same in assay [22]. In words: Inhibition of recombinant human Tyro3 kinase domain using poly (Glu, Ala, Tyr) as substrate at 0.5 uM after 1.5 hrs by ELISA relative to control.

The source made the active and inactive calls. The rule behind the calls is not given here.

Hepatocyte growth factor receptor (Homo sapiens), sequence (P08581 whole entry): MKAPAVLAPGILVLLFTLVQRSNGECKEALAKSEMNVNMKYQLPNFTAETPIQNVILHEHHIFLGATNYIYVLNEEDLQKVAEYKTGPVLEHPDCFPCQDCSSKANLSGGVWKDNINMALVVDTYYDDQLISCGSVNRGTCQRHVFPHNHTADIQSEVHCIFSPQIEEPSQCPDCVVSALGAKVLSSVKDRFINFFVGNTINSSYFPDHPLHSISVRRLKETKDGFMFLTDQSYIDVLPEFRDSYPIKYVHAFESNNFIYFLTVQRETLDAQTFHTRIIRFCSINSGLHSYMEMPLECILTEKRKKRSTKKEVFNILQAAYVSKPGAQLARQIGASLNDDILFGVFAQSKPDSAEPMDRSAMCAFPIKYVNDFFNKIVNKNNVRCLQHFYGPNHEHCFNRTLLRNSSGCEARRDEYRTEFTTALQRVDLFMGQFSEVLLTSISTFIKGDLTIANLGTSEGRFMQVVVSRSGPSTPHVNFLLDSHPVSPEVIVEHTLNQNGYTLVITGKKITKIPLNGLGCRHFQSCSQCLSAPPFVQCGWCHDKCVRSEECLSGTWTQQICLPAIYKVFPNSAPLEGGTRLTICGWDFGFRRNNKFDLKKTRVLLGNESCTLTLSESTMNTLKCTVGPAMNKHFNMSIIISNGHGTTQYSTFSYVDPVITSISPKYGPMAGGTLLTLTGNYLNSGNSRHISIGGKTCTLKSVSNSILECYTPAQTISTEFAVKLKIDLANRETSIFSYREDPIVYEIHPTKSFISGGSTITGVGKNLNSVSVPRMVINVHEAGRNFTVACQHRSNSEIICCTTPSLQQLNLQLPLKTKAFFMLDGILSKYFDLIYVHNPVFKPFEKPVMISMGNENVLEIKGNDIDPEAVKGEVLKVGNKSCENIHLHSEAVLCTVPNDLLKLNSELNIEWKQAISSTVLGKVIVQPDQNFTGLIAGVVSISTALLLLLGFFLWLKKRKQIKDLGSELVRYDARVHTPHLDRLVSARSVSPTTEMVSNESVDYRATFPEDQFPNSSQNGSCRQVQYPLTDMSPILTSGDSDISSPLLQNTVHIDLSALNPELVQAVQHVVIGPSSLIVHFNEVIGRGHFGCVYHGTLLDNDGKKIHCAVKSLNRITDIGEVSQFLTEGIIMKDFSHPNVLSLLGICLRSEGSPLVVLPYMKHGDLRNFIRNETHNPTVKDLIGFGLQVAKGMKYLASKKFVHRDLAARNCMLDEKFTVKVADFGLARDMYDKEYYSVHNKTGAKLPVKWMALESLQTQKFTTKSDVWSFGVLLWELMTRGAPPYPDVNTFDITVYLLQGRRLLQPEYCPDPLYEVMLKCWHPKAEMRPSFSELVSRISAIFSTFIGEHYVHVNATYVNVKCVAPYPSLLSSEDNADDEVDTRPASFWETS
Fibroblast growth factor receptor 3 (Homo sapiens), sequence (P22607 23-806 limits assumed): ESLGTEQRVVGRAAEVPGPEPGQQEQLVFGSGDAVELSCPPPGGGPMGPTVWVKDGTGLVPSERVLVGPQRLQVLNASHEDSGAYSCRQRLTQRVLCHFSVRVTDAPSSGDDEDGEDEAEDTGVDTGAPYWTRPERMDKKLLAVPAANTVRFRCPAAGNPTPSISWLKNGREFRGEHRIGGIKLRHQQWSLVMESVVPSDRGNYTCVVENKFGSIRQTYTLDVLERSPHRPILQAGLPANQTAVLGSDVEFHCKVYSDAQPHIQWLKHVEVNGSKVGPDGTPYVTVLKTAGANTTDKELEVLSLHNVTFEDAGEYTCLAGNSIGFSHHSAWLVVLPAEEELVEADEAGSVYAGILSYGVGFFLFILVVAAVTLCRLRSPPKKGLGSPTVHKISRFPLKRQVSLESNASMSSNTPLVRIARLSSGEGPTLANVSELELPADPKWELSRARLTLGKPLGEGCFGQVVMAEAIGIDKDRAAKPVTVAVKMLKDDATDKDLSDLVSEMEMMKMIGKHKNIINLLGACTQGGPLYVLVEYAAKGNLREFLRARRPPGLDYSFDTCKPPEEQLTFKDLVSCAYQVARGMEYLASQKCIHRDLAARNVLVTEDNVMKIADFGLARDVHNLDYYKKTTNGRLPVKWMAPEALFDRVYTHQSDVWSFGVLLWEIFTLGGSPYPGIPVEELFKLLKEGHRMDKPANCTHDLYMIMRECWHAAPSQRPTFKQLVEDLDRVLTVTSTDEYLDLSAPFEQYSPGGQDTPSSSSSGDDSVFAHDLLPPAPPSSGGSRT
Tyrosine-protein kinase receptor UFO (Homo sapiens), sequence (P30530 whole entry): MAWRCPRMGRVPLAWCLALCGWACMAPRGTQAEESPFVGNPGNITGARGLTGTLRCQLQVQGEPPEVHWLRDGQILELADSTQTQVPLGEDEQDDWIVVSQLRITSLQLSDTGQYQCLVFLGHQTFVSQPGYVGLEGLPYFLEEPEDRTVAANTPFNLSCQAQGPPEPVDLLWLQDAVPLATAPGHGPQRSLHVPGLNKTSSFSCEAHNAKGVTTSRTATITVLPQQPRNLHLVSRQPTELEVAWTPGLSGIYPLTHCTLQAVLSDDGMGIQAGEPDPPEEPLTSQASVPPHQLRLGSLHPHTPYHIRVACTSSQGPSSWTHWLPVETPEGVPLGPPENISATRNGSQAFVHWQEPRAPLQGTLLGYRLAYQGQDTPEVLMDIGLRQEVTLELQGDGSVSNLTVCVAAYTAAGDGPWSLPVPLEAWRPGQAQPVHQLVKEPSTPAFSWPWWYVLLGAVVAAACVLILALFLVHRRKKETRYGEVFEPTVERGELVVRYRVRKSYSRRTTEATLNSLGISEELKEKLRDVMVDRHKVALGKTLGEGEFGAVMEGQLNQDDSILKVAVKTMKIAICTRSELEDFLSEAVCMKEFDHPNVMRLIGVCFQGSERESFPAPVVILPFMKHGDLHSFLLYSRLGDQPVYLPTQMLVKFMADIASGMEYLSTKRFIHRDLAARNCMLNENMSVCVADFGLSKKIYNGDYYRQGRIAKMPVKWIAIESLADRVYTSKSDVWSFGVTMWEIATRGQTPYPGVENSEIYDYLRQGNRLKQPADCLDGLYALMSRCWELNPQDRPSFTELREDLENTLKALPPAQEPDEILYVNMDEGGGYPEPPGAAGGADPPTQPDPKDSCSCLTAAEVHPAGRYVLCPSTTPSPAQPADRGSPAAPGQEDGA
Tyrosine-protein kinase ABL1 (Homo sapiens), sequence (P00519 whole entry): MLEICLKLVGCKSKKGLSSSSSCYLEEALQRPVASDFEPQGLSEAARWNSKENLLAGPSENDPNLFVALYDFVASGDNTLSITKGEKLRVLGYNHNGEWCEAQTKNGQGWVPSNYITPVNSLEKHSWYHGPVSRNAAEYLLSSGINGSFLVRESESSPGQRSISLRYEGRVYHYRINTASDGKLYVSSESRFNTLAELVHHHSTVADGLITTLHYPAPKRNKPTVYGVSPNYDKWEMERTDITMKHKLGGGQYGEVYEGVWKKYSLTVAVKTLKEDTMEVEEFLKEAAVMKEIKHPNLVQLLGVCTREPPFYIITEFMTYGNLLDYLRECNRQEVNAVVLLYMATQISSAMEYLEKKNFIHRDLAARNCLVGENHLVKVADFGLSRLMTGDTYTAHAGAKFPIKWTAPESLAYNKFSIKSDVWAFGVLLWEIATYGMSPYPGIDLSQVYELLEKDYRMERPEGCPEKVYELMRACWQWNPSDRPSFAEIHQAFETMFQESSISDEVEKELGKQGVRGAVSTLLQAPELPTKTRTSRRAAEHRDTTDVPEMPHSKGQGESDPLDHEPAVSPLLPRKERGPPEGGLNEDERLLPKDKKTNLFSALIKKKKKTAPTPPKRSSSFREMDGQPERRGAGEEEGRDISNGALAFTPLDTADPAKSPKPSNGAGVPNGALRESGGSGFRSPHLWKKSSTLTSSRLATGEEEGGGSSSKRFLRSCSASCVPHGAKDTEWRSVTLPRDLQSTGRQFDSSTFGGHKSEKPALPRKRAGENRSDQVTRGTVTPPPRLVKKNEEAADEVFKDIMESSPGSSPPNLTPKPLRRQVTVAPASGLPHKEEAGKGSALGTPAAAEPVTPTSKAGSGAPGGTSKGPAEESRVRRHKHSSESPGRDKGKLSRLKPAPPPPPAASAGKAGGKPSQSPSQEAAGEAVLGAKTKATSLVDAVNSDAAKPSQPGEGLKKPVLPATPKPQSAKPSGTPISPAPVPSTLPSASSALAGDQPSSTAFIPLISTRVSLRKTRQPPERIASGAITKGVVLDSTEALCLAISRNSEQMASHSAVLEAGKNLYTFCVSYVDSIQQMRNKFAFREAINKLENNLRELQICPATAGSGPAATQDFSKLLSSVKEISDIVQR

For the compound `COc1ccc(-n2cccc(C(=O)Nc3ccc(Oc4cc(N)ncn4)c(F)c3)c2=O)c(F)c1`, the inhibition entry in assay [1] was “inactive”.

On to `O=C(Nc1ccc(Oc2cc(On3nnc4ccccc43)ncn2)c(F)c1)c1cccn(-c2ccc(F)cc2F)c1=O`, for which the inhibition entry in [1] is “inactive”.

`O=C(Nc1ccc(Oc2cc(NCCN3CCOCC3)ncn2)c(F)c1)c1cccn(-c2ccc(F)cc2)c1=O`: the inhibition amounted to 0% in [2]; 0% in [3]; 0% in [4]; 13% in assay [5]; 0% in assay [6]; 1% in assay [7]. Besides, the inhibition in [8] is 71%; in [9], 12%; in assay [10], 12%; in assay [11] it was 99%; in assay [12] it was 99%; in [13] it was 98%. The inhibition was found to be 49% in assay [14]; 93% in assay [15]; 90% in assay [16]; 100% in [17]; 99% in assay [18]; 95% in assay [19]. Moreover, the inhibition stood at 75% in assay [20], 63% in assay [21] and 50% in assay [22].

Take `CNc1nccc(Oc2ccc(NC(=O)c3cccn(-c4ccc(F)cc4)c3=O)cc2F)n1`: the inhibition entry in assay [1] was “inactive”.

Take `COc1ccc(-n2cccc(C(=O)Nc3ccc(Oc4cc(On5nnc6ccccc65)ncn4)c(F)c3)c2=O)c(F)c1`: the inhibition entry in assay [1] was “inactive”.

`COc1ccc(CNc2nccc(Oc3ccc(NC(=O)c4cccn(-c5ccc(F)cc5)c4=O)cc3F)n2)cc1`: the inhibition entry in [1] was “inactive”.

As to `CCOc1ccn(-c2ccc(F)cc2)c(=O)c1C(=O)Nc1ccc(Oc2ccnc(N)c2Cl)c(F)c1`, the inhibition in assay [2] amounted to 0%; in [3], 0%; in assay [4], 0%; in [6], 35%; in [8] it was 100%; in assay [9], 98%. Further, the inhibition in [12] was determined as 95%; in assay [14] it was 95%; in [15] it was 98%; in [16], 98%; in [17], 99%; in [18], 99%. For the same compound, the inhibition in assay [19] stood at 99%; in assay [20], 92%; in assay [21] it was 99%; in assay [22], 96%.

Consider `O=C(Nc1ccc(Oc2cc(Cl)ncn2)c(F)c1)c1cccn(-c2ccc(F)cc2)c1=O`, for which the inhibition result in [1] was “inactive”.

For the compound `COc1ccc(CNc2cc(Oc3ccc(NC(=O)c4cccn(-c5ccc(F)cc5)c4=O)cc3F)ncn2)cc1`, the inhibition result in assay [1] was “inactive”.

For the compound `O=C(Nc1ccc(Oc2cc(On3nnc4ccccc43)ncn2)c(F)c1)c1cccn(-c2ccc(F)c(F)c2)c1=O`, the inhibition result in [1] was “inactive”.

For the compound `CNc1cc(Oc2ccc(NC(=O)c3cccn(-c4ccc(F)cc4)c3=O)cc2F)ncn1`, the inhibition entry in assay [1] was “inactive”.

Turning to `Cc1cc(F)ccc1-n1cccc(C(=O)Nc2ccc(Oc3cc(On4nnc5ccccc54)ncn3)c(F)c2)c1=O`, the inhibition entry in assay [1] is “inactive”.

For `O=C(Nc1ccc(Oc2cc(On3nnc4ccccc43)ncn2)c(F)c1)c1cccn(-c2ccc(F)cc2)c1=O`, the inhibition entry in assay [1] is “inactive”.

Regarding `Nc1nccc(Oc2ccc(NC(=O)c3cccn(-c4ccc(F)cc4)c3=O)cc2F)n1`, the inhibition in [2] was found to be 12%; in assay [3] it was 0%; in assay [4] it was 0%; in assay [5], 30%; in [6], 0%; in [7], 0%. For the same compound, the inhibition worked out at 32% in assay [8]; 50% in assay [9]; 27% in [10]; 99% in [11]; 100% in assay [12]; 99% in [13]. The inhibition in [15] came out at 95%; in assay [16], 94%; in assay [17], 100%; in assay [18] it was 100%; in assay [19] it was 96%; in assay [21] it was 75%. The inhibition in assay [22] turned out to be 61%.

In the case of `Nc1cc(Oc2ccc(NC(=O)c3cccn(-c4ccc(F)c(F)c4)c3=O)cc2F)ncn1`, the inhibition entry in assay [1] was “inactive”.

Turning to `O=C(Nc1ccc(Oc2ncnc3[nH]cnc23)c(F)c1)c1cccn(-c2ccc(F)cc2)c1=O`, the inhibition in assay [2] amounted to 16%; in [3], 0%; in assay [4] it was 0%; in [5], 20%; in assay [6], 0%; in assay [7] it was 0%. Also, the inhibition in assay [8] is 66%; in assay [9], 32%; in assay [10], 17%; in [11], 95%; in assay [12], 98%; in [13] it was 93%. In addition, the inhibition amounted to 93% in assay [15]; 77% in [16]; 98% in assay [17]; 100% in assay [18]; 98% in assay [19]; 100% in assay [20]. Moreover, the inhibition in assay [21] came out at 94%; in assay [22], 73%.
